Here are results for three compounds from patent US20230140453A1, “METHOD FOR CONTROLLING OBESITY BY REGULATING ACTIVITY OF TREK1” (KOREA INSTITUTE OF SCIENCE AND TECHNOLOGY, priority 2021, published 2023).

In assay [1] the test system is primary cultured adipocytes. Kind of assay: Differentiation of primary cultured adipocytes. It counts as cell-based, mouse (C57BL/6). The settings on record: primary cultured adipocytes treated with TREK1 inhibitor (FIG. 4 legend). The method, then: (§1) The method for obtaining primary cultured adipocytes is as follows. Primary white adipocytes were isolated from inguinal WAT 6-8 week mouse (C57BL/6). The extracted WAT was washed in a 15 mL tube. The enzyme solution was mixed with collagenase Type II (Worthington Industries, Columbus, Ohio, USA) and PBS (Gibco, N.Y., USA), and the tissue was incubated in 20 mL enzyme solution in an incubator at 37° C. for 1 hour. After filtering, the tissue was added to a new 50 mL tube and centrifuged at 10,000 rpm for 10 minutes. The adipocytes floating in the solution were transferred to a new tube using a pipette. Then, the adipocytes were once more centrifuged in DMEM/F12 (Gibco, N.Y., USA) containing 10% (v/v) FBS. After transferring the fatty layer to the cell culture flask, and the flask was filled with DMEM/F12+mixture. The flask was inverted and incubated in a 37° C. CO2 incubator, and the medium was changed after about 5 days.

Another assay deals with 3T3L1 cells. Kind of assay: Intracellular calcium ion concentration in 3T3L1 preadipocytes. It counts as cell-based. An excerpt:
In summary, the activity of TREK1, which is a potassium ion channel, was decreased in the process of differentiation into adipocytes, and as a result, the cell membrane potential was depolarized, and voltage-dependent calcium ion channels were activated, resulting in increasing intracellular calcium ion concentration and promoting the differentiation of adipocytes.
(In general: Calcium assays in cells follow changes in intracellular calcium, usually with a dye or a luminescent sensor.)

Assay [2] concerns 3T3L1 cell line. The assay can be described thus: Potassium ion conductivity by patch clamp in undifferentiated 3T3L1 cells. It counts as cell-based. The settings on record: undifferentiated condition, patch clamp (FIG. 2B). As to the method:
(§2) 3T3-L1 cells were purchased from ATCC (American Type Culture Collection) and cultured in Dulbecco's Modified Eagle Medium (Gibco, N.Y., USA) with 10% (v/v) bovine serum (Gibco, N.Y., USA) and 1% v/v) penicillin/streptomycin (Thermo Fisher Scientific, N.J., USA). Cultures were maintained in a humidified 5% CO2 incubator at 37° C. After reaching 80% confluence, the differentiation of 3T3L1 cells was induced by replacing the medium with DMEM containing 10% FBS plus 1 μg/mL insulin, 0.5 mM isobutyl-1-methylxanthine (IBMX), 1 μM and 2 μM Rosiglitazone for 3 days. Afterward the medium was changed with DMEM containing 10% FBS plus 1 μg/mL insulin, and the cells were further cultured for 2 to 4 days. Culture medium contained a combination of IBMX, dexamethasone (Dex), insulin, rosiglitazone, and fetal bovine serum (FBS) to differentiate preadipocyte into mature adipocytes. After differentiation, experiments were conducted at three points. Each time the medium was changed over time, the cells were differentiated with IBMX medium for 3 days, and then changed to insulin medium every 2 days thereafter. As a result of confirmation by a microscope, the cell shape of 3T3-L1 was changed over time and intracellular lipid droplets were produced. […]

Assay [3] deals with primary cultured adipocytes. Kind of assay: Potassium conductivity and resting membrane potential in primary cultured adipocytes. Format: cell-based, mouse (C57BL/6). As to the method:
as §1

Assay [4] deals with 3T3L1 cell line. The assay can be described thus: Differentiation of 3T3L1 preadipocytes into adipocytes. Format: cell-based. As to the method: The 3T3L1 cell line, a preadipocyte cell line, was treated with MDI (Dexamethasone, IBMX, insulin) as a differentiation-inducing agent, and differentiation was induced for 7 days, and the differentiation into adipocytes was confirmed by staining with oil red 0 (FIG. 1A).
as §2, with “thereafter.” for “thereafter. As a result of confirmation by a microscope, the cell shape of 3T3-L1 was changed over time and intracellular lipid droplets were produced.”

Assay [5] concerns 3T3L1 cell line. Kind of assay: Adipocyte differentiation inhibition by TREK1 activator (triglyceride amount) in 3T3L1 cells. It counts as cell-based. The settings on record: 10 μM, 25 μM. As to the method:
3T3-L1 cells were purchased from ATCC (American Type Culture Collection) and cultured in Dulbecco's Modified Eagle Medium (Gibco, N.Y., USA) with 10% (v/v) bovine serum (Gibco, N.Y., USA) and 1% v/v) penicillin/streptomycin (Thermo Fisher Scientific, N.J., USA). Cultures were maintained in a humidified 5% CO2 incubator at 37° C. After reaching 80% confluence, the differentiation of 3T3L1 cells was induced by replacing the medium with DMEM containing 10% FBS plus 1 μg/mL insulin, 0.5 mM isobutyl-1-methylxanthine (IBMX), 1 μM and 2 μM Rosiglitazone for 3 days. Afterward the medium was changed with DMEM containing 10% FBS plus 1 μg/mL insulin, and the cells were further cultured for 2 to 4 days. Culture medium contained a combination of IBMX, dexamethasone (Dex), insulin, rosiglitazone, and fetal bovine serum (FBS) to differentiate preadipocyte into mature adipocytes. After differentiation, experiments were conducted at three points. Each time the medium was changed over time, the cells were differentiated with IBMX medium for 3 days, and then changed to insulin medium every 2 days thereafter. As a result of confirmation by a microscope, the cell shape of 3T3-L1 was changed over time and intracellular lipid droplets were produced.
The 3T3L1 cell line, in which the same effect as in vivo and conditions was well confirmed, was treated with ML402, which has been reported to have an active effect on TREK1. Specifically, the cells were sampled on the 3rd, 5th, and 7th days by treating ML402 together from the time of differentiation at concentrations of 10 μM, 25 μM, and 100 μM, respectively.

On to spadin, for which the differentiation into adipocytes entry in assay [1] was “differentiation into adipocytes is significantly increased”. The “intracellular calcium ion concentration” value with 3T3L1 cells (30 minutes after spadin treatment (FIG. 3A)) is listed as “a significant increase in calcium ions”. In the assay with 3T3L1 cell line [2], the potassium conductivity entry was “most of the potassium conductivity was decreased”. In assay [3] (1 μM concentration (FIG. 4C)), the resting membrane potential entry is recorded as “the resting membrane potential was also increased”. Moreover, the potassium ion conductivity result in assay [3] (1 μM concentration (FIGS. 4A and 4B)) is on record as “significantly decreased”. Further, in the assay with 3T3L1 cell line [4] (treated in the process of differentiation of 3T3L1 (FIG. 2C)), the “degree of differentiation into adipocytes” value is recorded as “the degree of differentiation was significantly increased”.

For the compound `Cc1cc(Cl)ccc1OCCNC(=O)c1cccs1` [ML402], in the assay with 3T3L1 cell line [5] (3T3L1, 100 μM (FIG. 7)), the differentiation process result is listed as “inhibited in a concentration-dependent manner”. Further, the amount of triglycerides entry in the assay with 3T3L1 cell line [5] (3rd day, 100 μM from the time of differentiation, vs control group (FIG. 7)) is “did not show a significant difference”; in the assay on 3T3L1 cell line [5] (5th and 7th days, 100 μM from the time of differentiation (FIG. 7)), “decreased in a concentration-dependent manner”.

Turning to `COC(=O)C1=C(C)NC(C)=C(C(=O)OC)C1c1ccccc1[N+](=O)[O-]` [nifedifine], in the assay on 3T3L1 cells (with voltage-dependent calcium ion channel inhibitor (FIGS. 3B and 3C)), the “spadin-induced increase in calcium ions” value is on record as “effectively inhibited”. In addition, the differentiation into adipocytes result with 3T3L1 cell line [4] (with voltage-dependent calcium ion channel inhibitor, spadin-treated 3T3L1 (FIGS. 3D and 3E)) was “differentiation into adipocytes was also inhibited”.
